In patent publication US9604944B2, “Arylpiperazine derivatives and methods of utilizing same” (REVIVA PHARMACEUTICALS, INC., priority 2009, dated 2017):
Counter-ions that a name gives are not always drawn.

What was measured:
[1] = molecular target: serotonin 5-HT2A receptor (Human Cortex) (Homo sapiens (Human), UniProt P28223); assay: Serotonin, 5HT2A (human) binding assay; details: radioligand [3H]-Ketanserin
Protocol: Serotonin, 5HT2A (human) binding assay
Materials and Methods: • Receptor Source: Human Cortex • Radioligand: [^3H]-Ketanserin (60-90 Ci/mmol) • Control Compound: Ketanserin • Incubation Conditions: The reactions were carried out in 50 mM TRIS-HCl (pH 7.6) at room temperature for 90 minutes. The reaction was terminated by rapid vacuum filtration onto glass fiber filters. Radioactivity trapped onto the filters was determined and compared to control values in order to ascertain any interactions of test compounds with the serotonin-5HT2A binding site (Literature Reference: Leysen, J. E. et al. Mol. Pharmacol. 1982, 21, 301-314; Martin, G. R. and Humphrey, P. P. A. Neuropharmacol. 1994, 33(3/4), 261-273.)
(§1) The radioligand binding assays for dopamine-D2S, serotonin-5HT1A and serotonin-5HT2A were carried out at six different concentrations and the test concentrations were 0.5 nM, 1 nM, 10 nm, 100 nM, 300 nM and 1000 nM.

[2] = molecular target: dopamine D2S receptor (human recombinant expressed in CHO cells) (Homo sapiens (Human), UniProt P14416); assay: Dopamine, D2S (human recombinant) binding assay; details: radioligand [3H]Spiperone
Sequence of dopamine D2S receptor (human recombinant expressed in CHO cells) (P14416 other isoform, or with tags, fused parts or gaps): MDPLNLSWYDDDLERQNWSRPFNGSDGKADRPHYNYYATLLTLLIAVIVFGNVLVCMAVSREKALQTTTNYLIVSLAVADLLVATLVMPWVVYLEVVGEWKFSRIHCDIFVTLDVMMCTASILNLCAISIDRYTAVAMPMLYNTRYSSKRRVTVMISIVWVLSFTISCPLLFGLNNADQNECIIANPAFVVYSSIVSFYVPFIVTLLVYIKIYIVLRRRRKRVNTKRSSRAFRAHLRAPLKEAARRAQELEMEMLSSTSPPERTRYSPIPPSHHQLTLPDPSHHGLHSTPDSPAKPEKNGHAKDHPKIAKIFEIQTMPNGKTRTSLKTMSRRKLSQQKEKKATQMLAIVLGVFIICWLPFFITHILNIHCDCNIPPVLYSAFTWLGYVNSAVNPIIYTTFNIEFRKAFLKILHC
Protocol: Dopamine, D2S (human recombinant) binding assay
Materials and Methods: • Receptor Source: Human recombinant expressed in CHO cells • Radioligand: [^3H]Spiperone (20-60 Ci/mmol) • Control Compound: Haloperidol • Incubation Conditions: The reactions were carried out in 50 mM TRIS-HCl (pH 7.4) containing 120 mM NaCl, 5 mM KCl, 5 mM MgCl2, 1 mM EDTA for 60 minutes at 25 C. The reaction was terminated by rapid vacuum filtration onto glass fiber filters. Radioactivity trapped onto the filters was determined and compared to control values in order to ascertain any interactions of test compounds with the cloned dopamine—D2 short binding site (Literature Reference: Jarvis, K. R. et al. Journal of Receptor Research 1993, 13(1-4), 573-590; Gundlach, A. L. et al. Life Sciences 1984, 35, 1981-1988.)
as §1

[3] = molecular target: serotonin 5-HT1A receptor (human recombinant expressed in HEK-293 cells) (Homo sapiens (Human), UniProt P08908); assay: Serotonin, 5HT1A (human recombinant) binding assay; details: radioligand [3H]-8-OH-DPAT; human recombinant in HEK-293 cells
Sequence of serotonin 5-HT1A receptor (human recombinant expressed in HEK-293 cells) (P08908 whole entry): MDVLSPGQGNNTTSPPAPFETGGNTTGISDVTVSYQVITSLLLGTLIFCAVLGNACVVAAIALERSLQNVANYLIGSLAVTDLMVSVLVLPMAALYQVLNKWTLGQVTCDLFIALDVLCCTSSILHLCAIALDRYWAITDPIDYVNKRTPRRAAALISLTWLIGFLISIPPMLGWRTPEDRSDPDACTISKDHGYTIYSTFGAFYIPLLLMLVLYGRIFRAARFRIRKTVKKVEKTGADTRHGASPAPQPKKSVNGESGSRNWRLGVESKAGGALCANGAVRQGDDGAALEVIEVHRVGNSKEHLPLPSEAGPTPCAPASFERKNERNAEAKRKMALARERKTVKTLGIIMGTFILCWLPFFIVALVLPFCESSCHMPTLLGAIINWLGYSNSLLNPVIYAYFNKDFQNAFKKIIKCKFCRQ
Protocol: Serotonin, 5HT1A (human recombinant) binding assay
Materials and Methods: • Receptor Source: Human recombinant expressed in HEK-293 cells • Radioligand: [^3H]-8-OH-DPAT (221 Ci/mmol) • Control Compound: 8-OH-DPAT • Incubation Conditions: The reactions were carried out in 50 mM TRIS-HCl (pH 7.4) containing 10 mM MgSO4, 0.5 mM EDTA and 0.1% Ascorbic acid at room temperature for 1 hour. The reaction was terminated by rapid vacuum filtration onto glass fiber filters. Radioactivity trapped onto the filters was determined and compared to control values in order to ascertain any interactions of test compounds with the cloned serotonin—5HT1A binding site (Literature Reference: Hoyer, D. et al. Eur. Journal Pharmacol. 1985, 118, 13-23; Schoeffter, P. and Hoyer, D. Naunyn-Schmiedeberg's Arch. Pharmac. 1989, 340, 135-138)
as §1

Sequence of serotonin 5-HT2A receptor (Human Cortex) (P28223 whole entry): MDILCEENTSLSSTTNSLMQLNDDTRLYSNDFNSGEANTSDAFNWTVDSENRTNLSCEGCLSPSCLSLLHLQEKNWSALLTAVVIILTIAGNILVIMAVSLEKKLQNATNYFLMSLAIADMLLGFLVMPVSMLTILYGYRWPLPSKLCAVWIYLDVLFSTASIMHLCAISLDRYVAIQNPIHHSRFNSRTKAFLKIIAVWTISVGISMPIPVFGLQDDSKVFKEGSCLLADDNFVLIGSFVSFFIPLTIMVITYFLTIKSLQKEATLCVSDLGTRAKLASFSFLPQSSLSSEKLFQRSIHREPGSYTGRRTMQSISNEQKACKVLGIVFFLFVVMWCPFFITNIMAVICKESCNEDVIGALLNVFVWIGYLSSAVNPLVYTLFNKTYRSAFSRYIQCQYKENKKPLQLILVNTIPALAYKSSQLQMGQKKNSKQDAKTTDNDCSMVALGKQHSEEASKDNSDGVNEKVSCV

Structure (SMILES) | IC50 [1] | Ki [1] | IC50 [2] | Ki [2] | IC50 [3] | Ki [3]
COc1ccccc1N1CCN(CCCCOc2ccc3c(c2)NC(=O)CO3)CC1 [Compound 15a, 6-(4-(4-(2-Methoxyphenyl)piperazin-1-yl)butoxy)-2H-benzo[b][1,4]oxazin-3(4H)-one hydrochloride] | 262 nM | 118 nM | 0.98 nM | 0.3 nM | 0.97 nM | 0.65 nM
O=C1COc2ccc(OCCCCN3CCN(c4cccc(Cl)c4Cl)CC3)cc2N1 [Compound 15b, 6-(4-(4-(2,3-Dichlorophenyl)piperazin-1-yl)butoxy)-2H-benzo[b][1,4]oxazin-3(4H)-one hydrochloride] | 130 nM | 58.5 nM |  |  | 2.25 nM | 1.5 nM
